Two compounds from ChEMBL document CHEMBL1143329, “Discovery and SAR of benzyl phenyl ethers as inhibitors of bacterial phenylalanyl-tRNA synthetase” (Bioorg Med Chem Lett, 2009) can be followed below.

The structures appear in SMILES notation.

A short description of data set [1]: Membrane permeability by PAMPA. It is filed as ADME.
In data set [2] the target is T1, CYP1A2 (Homo sapiens, UniProt P05177).
T1 sequence (P05177 whole entry): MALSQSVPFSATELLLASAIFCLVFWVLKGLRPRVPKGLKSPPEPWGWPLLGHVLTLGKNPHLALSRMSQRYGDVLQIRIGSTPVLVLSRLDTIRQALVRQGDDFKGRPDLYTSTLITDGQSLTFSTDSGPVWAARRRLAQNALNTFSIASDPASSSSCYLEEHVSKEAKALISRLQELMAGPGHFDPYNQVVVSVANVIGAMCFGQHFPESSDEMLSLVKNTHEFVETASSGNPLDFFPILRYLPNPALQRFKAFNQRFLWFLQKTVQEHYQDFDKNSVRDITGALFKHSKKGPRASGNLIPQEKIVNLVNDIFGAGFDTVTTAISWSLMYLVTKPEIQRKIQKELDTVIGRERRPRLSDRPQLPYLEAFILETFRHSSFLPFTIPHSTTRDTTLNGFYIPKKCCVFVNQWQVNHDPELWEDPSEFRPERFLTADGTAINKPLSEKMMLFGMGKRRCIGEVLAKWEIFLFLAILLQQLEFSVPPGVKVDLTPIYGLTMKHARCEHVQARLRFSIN
Put plainly: Inhibition of human CYP1A2 at 3 uM. Format: ADME. Particulars: read-out: Activity; call rule not given here.

Data set [3] can be described thus: Apparent intrinsic clearance in human liver microsomes. It is filed as ADME, Microsome. (Liver microsomes are a subcellular fraction often used to study metabolism.)
A short description of data set [4]: Inhibition of Haemophilus influenzae phenylalanyl-tRNA synthetase.
A short description of data set [5]: Inhibition of Streptococcus pneumoniae phenylalanyl-tRNA synthetase.
Data set [6] deals with hERG (KCNH2) (Homo sapiens, UniProt Q12809). Put plainly: Displacement of [3H]dofetilide from human ERG channel at 10 nM. Particulars: probe [3H]dofetilide, read-out: Activity.
Chain of hERG (KCNH2) (Q12809 whole entry): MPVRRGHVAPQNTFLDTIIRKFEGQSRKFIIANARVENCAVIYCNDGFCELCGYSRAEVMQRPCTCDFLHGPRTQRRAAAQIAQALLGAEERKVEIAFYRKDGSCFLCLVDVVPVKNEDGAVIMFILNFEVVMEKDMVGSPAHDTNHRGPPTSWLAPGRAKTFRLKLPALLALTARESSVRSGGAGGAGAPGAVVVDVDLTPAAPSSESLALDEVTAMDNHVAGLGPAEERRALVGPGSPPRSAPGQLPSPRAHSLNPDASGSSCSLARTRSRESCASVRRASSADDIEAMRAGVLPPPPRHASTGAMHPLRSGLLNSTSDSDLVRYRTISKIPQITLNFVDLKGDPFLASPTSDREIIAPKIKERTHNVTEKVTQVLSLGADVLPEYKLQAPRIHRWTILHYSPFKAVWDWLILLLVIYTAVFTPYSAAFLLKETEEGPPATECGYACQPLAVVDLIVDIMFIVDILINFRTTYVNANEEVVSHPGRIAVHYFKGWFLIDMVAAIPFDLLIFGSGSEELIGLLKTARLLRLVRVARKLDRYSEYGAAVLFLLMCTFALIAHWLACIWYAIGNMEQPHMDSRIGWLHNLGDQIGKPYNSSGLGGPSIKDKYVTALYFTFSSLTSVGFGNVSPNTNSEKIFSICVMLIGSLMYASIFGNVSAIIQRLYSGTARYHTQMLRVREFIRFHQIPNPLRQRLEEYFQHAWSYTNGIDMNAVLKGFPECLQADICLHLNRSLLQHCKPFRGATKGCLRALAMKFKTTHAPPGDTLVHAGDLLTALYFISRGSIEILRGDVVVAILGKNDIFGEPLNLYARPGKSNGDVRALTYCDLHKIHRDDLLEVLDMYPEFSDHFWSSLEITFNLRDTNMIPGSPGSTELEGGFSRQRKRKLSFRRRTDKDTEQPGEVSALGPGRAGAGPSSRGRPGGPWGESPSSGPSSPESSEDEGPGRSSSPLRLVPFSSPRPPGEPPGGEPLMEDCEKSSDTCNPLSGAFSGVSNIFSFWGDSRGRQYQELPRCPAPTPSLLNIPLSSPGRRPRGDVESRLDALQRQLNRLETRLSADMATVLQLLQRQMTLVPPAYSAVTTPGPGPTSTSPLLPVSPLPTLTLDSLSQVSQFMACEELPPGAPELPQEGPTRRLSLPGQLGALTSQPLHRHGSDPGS

As a reminder, the CLint scaled is the rate of metabolic loss divided by the concentration. In general, IC50 refers to the point on the concentration scale where inhibition reaches its midpoint. A high value points to lower potency. Take `Clc1cccc(COc2cnc(-c3nnco3)cc2Cl)c1`: in data set [1] (read-out: Activity), the Papp is 5.31 ×10⁻⁶ cm/s. Also, the inhibition at 3 µM in data set [2] amounted to 38%. In addition, the CLint scaled in data set [3] is under 10.1 mL/min/kg. For the same compound, the IC50 in data set [4] was 12 µM; in data set [5], 97 µM.
For `CC(=O)NC1CCN(Cc2ccc(OCc3ccc(Cl)cc3)c(Cl)c2)C1` (stereo not given), in data set [1], the Activity entry is “Not Active”. Further, in data set [3], the CLint scaled worked out at 9.63 mL/min/kg. The inhibition at 0.01 µM in data set [6] was found to be 89%. Besides, the IC50 was 0.24 µM in data set [4] and 2.2 µM in data set [5].
